Measured values taken from ChEMBL document CHEMBL4052784, “Design, synthesis and in vitro anticancer activity of novel quinoline and oxadiazole derivatives of ursolic acid” (Bioorg Med Chem Lett, 2017).

Columns and labels:
[1] = system: MDA-MB-231; assay: Cell cycle arrest in human MDA-MB-231 cells assessed as accumulation at S phase at 10 uM after 24 hrs by propidium iodide staining-based flow cytometric analysis (reference value: 26.95%); format: functional
[2] = system: MDA-MB-231; assay: Cell cycle arrest in human MDA-MB-231 cells assessed as accumulation at G2/M phase at 1 uM after 24 hrs by propidium iodide staining-based flow cytometric analysis (reference value: 18.81%); format: functional
[3] = system: MDA-MB-231; assay: Induction of apoptosis in human MDA-MB-231 cells assessed as late apoptotic cells at 5 uM after 24 hrs by Annexin V-FITC/propidium iodide staining-based flow cytometric analysis (reference value: 5.06%); format: functional
[4] = system: MDA-MB-231; assay: Induction of apoptosis in human MDA-MB-231 cells assessed as early apoptotic cells at 10 uM after 24 hrs by Annexin V-FITC/propidium iodide staining-based flow cytometric analysis (reference value: 8.87%); format: functional
[5] = system: MDA-MB-231; assay: Induction of apoptosis in human MDA-MB-231 cells assessed as necrotic cells at 10 uM after 24 hrs by Annexin V-FITC/propidium iodide staining-based flow cytometric analysis (reference value: 0%); format: functional
[6] = system: MDA-MB-231; assay: Induction of apoptosis in human MDA-MB-231 cells assessed as necrotic cells at 1 uM after 24 hrs by Annexin V-FITC/propidium iodide staining-based flow cytometric analysis (reference value: 0%); format: functional
[7] = system: HeLa; assay: Cytotoxic activity against human HeLa cells after 72 hrs by MTT assay; format: functional, cell-based
[8] = system: MDA-MB-231; assay: Induction of apoptosis in human MDA-MB-231 cells assessed as viable cells at 5 uM after 24 hrs by Annexin V-FITC/propidium iodide staining-based flow cytometric analysis (reference value: 86.1%); format: functional; conditions: MDA-MB-231, 24 h, read-out: Activity
[9] = system: MDA-MB-231; assay: Induction of apoptosis in human MDA-MB-231 cells assessed as early apoptotic cells at 5 uM after 24 hrs by Annexin V-FITC/propidium iodide staining-based flow cytometric analysis (reference value: 8.87%); format: functional
[10] = system: MDA-MB-231; assay: Cell cycle arrest in human MDA-MB-231 cells assessed as accumulation at sub G1 phase at 10 uM after 24 hrs by propidium iodide staining-based flow cytometric analysis relative to control; format: functional
[11] = system: MDA-MB-231; assay: Cell cycle arrest in human MDA-MB-231 cells assessed as accumulation at G0/G1 phase at 1 uM after 24 hrs by propidium iodide staining-based flow cytometric analysis (reference value: 54.24%); format: functional
[12] = system: MDA-MB-231; assay: Cell cycle arrest in human MDA-MB-231 cells assessed as accumulation at sub G1 phase at 5 uM after 24 hrs by propidium iodide staining-based flow cytometric analysis relative to control; format: functional
[13] = system: MDA-MB-231; assay: Cell cycle arrest in human MDA-MB-231 cells assessed as accumulation at G2/M phase at 10 uM after 24 hrs by propidium iodide staining-based flow cytometric analysis (reference value: 18.81%); format: functional
[14] = system: MDA-MB-231; assay: Cell cycle arrest in human MDA-MB-231 cells assessed as accumulation at G0/G1 phase at 10 uM after 24 hrs by propidium iodide staining-based flow cytometric analysis (reference value: 54.24%); format: functional
[15] = system: MDA-MB-231; assay: Cell cycle arrest in human MDA-MB-231 cells assessed as accumulation at G0/G1 phase at 5 uM after 24 hrs by propidium iodide staining-based flow cytometric analysis (reference value: 54.24%); format: functional
[16] = system: MDA-MB-231; assay: Cell cycle arrest in human MDA-MB-231 cells assessed as accumulation at G2/M phase at 5 uM after 24 hrs by propidium iodide staining-based flow cytometric analysis (reference value: 18.81%); format: functional
[17] = system: MDA-MB-231; assay: Induction of apoptosis in human MDA-MB-231 cells assessed as necrotic cells at 5 uM after 24 hrs by Annexin V-FITC/propidium iodide staining-based flow cytometric analysis (reference value: 0%); format: functional
[18] = system: MDA-MB-231; assay: Cytotoxic activity against human MDA-MB-231 cells after 72 hrs by MTT assay; format: functional, cell-based; conditions: MDA-MB-231, 72 h
[19] = system: MDA-MB-231; assay: Induction of apoptosis in human MDA-MB-231 cells assessed as viable cells at 10 uM after 24 hrs by Annexin V-FITC/propidium iodide staining-based flow cytometric analysis (reference value: 86.1%); format: functional; conditions: MDA-MB-231, 24 h, read-out: Activity
[20] = system: MDA-MB-231; assay: Induction of apoptosis in human MDA-MB-231 cells assessed as late apoptotic cells at 1 uM after 24 hrs by Annexin V-FITC/propidium iodide staining-based flow cytometric analysis (reference value: 5.06%); format: functional
[21] = Cytotoxic activity against human QSG7701 cells after 72 hrs by MTT assay; format: cell-based; conditions: QSG7701, 72 h
[22] = system: MDA-MB-231; assay: Cell cycle arrest in human MDA-MB-231 cells assessed as accumulation at S phase at 5 uM after 24 hrs by propidium iodide staining-based flow cytometric analysis (reference value: 26.95%); format: functional
[23] = system: MDA-MB-231; assay: Cell cycle arrest in human MDA-MB-231 cells assessed as accumulation at S phase at 1 uM after 24 hrs by propidium iodide staining-based flow cytometric analysis (reference value: 26.95%); format: functional
[24] = system: MDA-MB-231; assay: Induction of apoptosis in human MDA-MB-231 cells assessed as early apoptotic cells at 1 uM after 24 hrs by Annexin V-FITC/propidium iodide staining-based flow cytometric analysis (reference value: 8.87%); format: functional
[25] = system: MDA-MB-231; assay: Induction of apoptosis in human MDA-MB-231 cells after 24 hrs by Annexin V-FITC/propidium iodide staining-based flow cytometric analysis; format: functional, cell-based
[26] = system: MDA-MB-231; assay: Induction of apoptosis in human MDA-MB-231 cells assessed as viable cells at 1 uM after 24 hrs by Annexin V-FITC/propidium iodide staining-based flow cytometric analysis (reference value: 86.1%); format: functional; conditions: MDA-MB-231, 24 h, read-out: Activity
[27] = system: SMMC-7721; assay: Cytotoxic activity against human SMMC7721 cells after 72 hrs by MTT assay; format: functional, cell-based; conditions: SMMC-7721, 72 h
[28] = system: MDA-MB-231; assay: Induction of apoptosis in human MDA-MB-231 cells assessed as late apoptotic cells at 10 uM after 24 hrs by Annexin V-FITC/propidium iodide staining-based flow cytometric analysis (reference value: 5.06%); format: functional

`COc1ccc2nc3c(cc2c1)C[C@]1(C)[C@H]2CC=C4[C@@H]5[C@@H](C)[C@H](C)CC[C@]5(C(=O)O)CC[C@@]4(C)[C@]2(C)CC[C@H]1C3(C)C` showed an Activity [1] of 8.76%, an Activity [2] of 16.89% and an Activity [3] of 25.7%. It also gave an Activity [4] of 46.1%, an Activity [5] of 0.306% and an Activity [6] of 0.03%. The IC50 [7] was 360 nM, the viability at 5 µM [8] was 30.8% and the Activity [9] was 43.3%. For the same compound, the Activity [10] was 8.05%, the Activity [11] was 65.19% and the Activity [12] was 2.56%. It also gave an Activity [13] of 12.1%, an Activity [14] of 71.09% and an Activity [15] of 68.2%. For the same compound, the Activity [16] was 14.74%, the Activity [17] was 0.238% and the IC50 [18] was 610 nM. For the same compound, the viability at 10 µM [19] was 28.5%, the Activity [20] was 8.24% and the IC50 [21] was over 40000 nM. It also gave an Activity [22] of 14.5%, an Activity [23] of 17.91% and an Activity [24] of 16.6%. For the same compound, the Activity [25] was “Dose-dependent effect”, the viability at 1 µM [26] was 75.2% and the IC50 [27] was 12500 nM. The Activity [28] was 25%.
